Assay results from ChEMBL document CHEMBL3751717, “Benzylamide antagonists of protease activated receptor 2 with anti-inflammatory activity” (Bioorg Med Chem Lett, 2016).
pIC50: −log10 of the molar value. Active and inactive are the calls of the source. No cut-off for these calls is given here.

Experiments:
[1] = target: Proteinase-activated receptor 2 (Homo sapiens) (UniProt P55085); experiment: Agonist activity at PAR2 in human HT-29 cells assessed as induction of ca2+ release at 10 uM after 1 hr by FLIPR assay relative to 2f-LIGRLO-NH2; type: cell-based
[2] = target: Proteinase-activated receptor 2 (Homo sapiens) (UniProt P55085); experiment: Antagonist activity at PAR2 in human HT-29 cells assessed as inhibition of 2f-LIGRLO-NH2-induced ca2+ release at 1 uM preincubated for 15 mins measured after 1 hr by FLIPR assay; type: cell-based
[3] = target: T1, Proteinase-activated receptor 2 (Homo sapiens, UniProt P55085); experiment: Antagonist activity at PAR2 in human HT-29 cells assessed as inhibition of 2f-LIGRLO-NH2-induced ca2+ release preincubated for 15 mins measured after 1 hr by FLIPR assay; type: cell-based; details: for pIC50: read-out: IC50
T1 sequence (P55085 whole entry): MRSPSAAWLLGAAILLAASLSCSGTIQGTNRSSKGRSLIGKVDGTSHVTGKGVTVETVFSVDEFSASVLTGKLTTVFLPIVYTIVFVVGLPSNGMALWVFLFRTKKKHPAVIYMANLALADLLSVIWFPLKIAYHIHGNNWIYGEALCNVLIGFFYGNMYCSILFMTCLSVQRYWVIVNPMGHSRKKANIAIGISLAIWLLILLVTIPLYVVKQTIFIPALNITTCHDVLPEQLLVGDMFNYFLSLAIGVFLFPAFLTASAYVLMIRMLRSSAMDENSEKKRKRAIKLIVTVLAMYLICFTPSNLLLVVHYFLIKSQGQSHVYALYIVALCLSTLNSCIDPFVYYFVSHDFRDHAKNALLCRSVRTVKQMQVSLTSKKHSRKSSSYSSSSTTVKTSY

HTEC [4] = experiment: Antiinflammatory activity in human HTEC cells assessed as inhibition of 2f-LIGRLO-NH2-induced IL-6 production at 5 to 10 uM after 24 hrs by ELISA; type: functional, cell-based
HTEC [5] = experiment: Antiinflammatory activity in human HTEC cells assessed as inhibition of 2f-LIGRLO-NH2-induced TNFalpha production at 5 to 10 uM after 24 hrs by ELISA; type: functional, cell-based
[6] = target: T2, Proteinase-activated receptor 1 (Homo sapiens) (UniProt P25116); experiment: Antagonist activity at PAR1 in human PC3 cells assessed as inhibition of TFLLR-induced ca2+ release at 100 uM preincubated for 15 mins measured after 1 hr by FLIPR assay; type: cell-based; details: PC-3
T2 sequence (whole entry): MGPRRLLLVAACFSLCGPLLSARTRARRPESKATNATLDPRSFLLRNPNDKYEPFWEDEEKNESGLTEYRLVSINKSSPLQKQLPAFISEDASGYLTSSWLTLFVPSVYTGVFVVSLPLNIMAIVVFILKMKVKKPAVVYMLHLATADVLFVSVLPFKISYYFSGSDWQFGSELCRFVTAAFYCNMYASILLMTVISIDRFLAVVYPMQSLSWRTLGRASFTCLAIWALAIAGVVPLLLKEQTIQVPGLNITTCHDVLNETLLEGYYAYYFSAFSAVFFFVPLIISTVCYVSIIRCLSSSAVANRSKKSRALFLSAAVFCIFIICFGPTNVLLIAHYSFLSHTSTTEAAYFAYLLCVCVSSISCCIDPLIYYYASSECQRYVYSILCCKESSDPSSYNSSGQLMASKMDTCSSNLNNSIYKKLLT

[7] = target: T1, Proteinase-activated receptor 2; experiment: Displacement of europium-labeled 2f-LIGRLO-NH2 from human PAR2 expressed in CHO cells after 1 to 2 hrs; type: cell-based
[8] = target: T1, Proteinase-activated receptor 2; experiment: Antagonist activity at PAR2 in human HT-29 cells assessed as inhibition of trypsin-induced ca2+ release preincubated for 15 mins measured after 1 hr by FLIPR assay; type: cell-based; details: read-out: pIC50 (converted)
[9] = Tmax in Wistar rat at 10 mg/kg, po; type: ADME, organism-based; details: in vivo
[10] = target: T2, Proteinase-activated receptor 1 (Homo sapiens); experiment: Antagonist activity at PAR1 in human PC3 cells assessed as inhibition of alpha-thrombin-induced ca2+ release at 100 uM preincubated for 15 mins measured after 1 hr by FLIPR assay; type: cell-based; details: PC-3
[11] = AUC (0 to 6 hrs) in Wistar rat at 10 mg/kg, po; type: ADME, organism-based; design: time < 6 hr, dose 10 mg/kg, route oral; details: in vivo
Rattus norvegicus [12] = experiment: Antiinflammatory activity in Wistar rat assessed as inhibition of 2f-LIGRLO-NH2-induced paw edema at 10 mg/kg, po dosed 120 mins before 2f-LIGRLO-NH2 stimulation; type: functional, organism-based
Rattus norvegicus [13] = experiment: Antiinflammatory activity in Wistar rat assessed as inhibition of 2f-LIGRLO-NH2-induced paw edema at 5 mg/kg, sc dosed 120 mins before 2f-LIGRLO-NH2 stimulation; type: functional, organism-based
[14] = Cmax in Wistar rat at 10 mg/kg, po; type: ADME, organism-based; design: dose 10 mg/kg, route oral; details: in vivo

Structure (SMILES)	Activity [1] [%]	inhibition [2] [%]	other results
CC[C@H](C)[C@H](NC(=O)[C@H](CC1CCCCC1)NC(=O)c1ccno1)C(=O)NCc1ccc(OC)cc1	51	95	–
CC[C@H](C)[C@H](NC(=O)[C@H](CC1CCCCC1)NC(=O)c1ccno1)C(=O)NNc1ccccc1	41	33	–
CC[C@H](C)[C@H](NC(=O)[C@H](CC1CCCCC1)NC(=O)c1ccno1)C(=O)NCc1ccccc1Cl	43	85	–
CC[C@H](C)[C@H](NC(=O)[C@H](CC1CCCCC1)NC(=O)c1ccno1)C(=O)N(CC(C)C)CC(C)C	1	0	–
CC[C@H](C)[C@H](NC(=O)[C@H](CC1CCCCC1)NC(=O)c1ccno1)C(=O)NCc1ccccc1C	29	74	–
CC[C@H](C)[C@H](NC(=O)[C@H](CC1CCCCC1)NC(=O)c1ccno1)C(=O)NCc1ccc(F)cc1	28	82	–
CCCOc1ccccc1CNC(=O)[C@@H](NC(=O)[C@H](CC1CCCCC1)NC(=O)c1ccno1)[C@@H](C)CC	1	34	–
CCC(C)Oc1ccccc1CNC(=O)[C@@H](NC(=O)[C@H](CC1CCCCC1)NC(=O)c1ccno1)[C@@H](C)CC (some centres not stated)	6	53	pIC50 [3]: 6.00; IC50 ([3]; read-out: pIC50 (converted)): 1260 nM
CC[C@H](C)[C@H](NC(=O)[C@H](CC1CCCCC1)NC(=O)c1ccno1)C(=O)NC1C2CC3CC(C2)CC1C3 (some centres not stated)	26	29	–
CC[C@H](C)[C@H](NC(=O)[C@H](CC1CCCCC1)NC(=O)c1ccno1)C(=O)N(C)Cc1ccccc1OC	20	27	–
CC[C@H](C)[C@H](NC(=O)[C@H](CC1CCCCC1)NC(=O)c1ccno1)C(=O)NCc1ccccc1	23	76	–
CC[C@H](C)[C@H](NC(=O)[C@H](CC1CCCCC1)NC(=O)c1ccno1)C(=O)NCCc1ccc(OC)c(OC)c1	39	32	–
CC[C@H](C)[C@H](NC(=O)[C@H](CC1CCCCC1)NC(=O)c1ccno1)C(=O)NCc1cccc2ccccc12	2	12	–
CC[C@H](C)[C@H](NC(=O)[C@H](CC1CCCCC1)NC(=O)c1ccno1)C(=O)NCc1nc2ccccc2[nH]1	86	–	–
CC[C@H](C)[C@H](NC(=O)[C@H](CC1CCCCC1)NC(=O)c1ccno1)C(=O)NCc1ccccc1OC	20	100	pIC50 [3]: 6.30; inhibition (HTEC [4]): Active; inhibition (HTEC [5]): Active; inhibition [6]: inactive; pIC50 [7]: 5.35; IC50 [8]: 2000 nM; Tmax [9]: 2.63 h; inhibition [10]: inactive; AUC(0-t) at 6 h [11]: 444 ng·h/mL; inhibition (Rattus norvegicus [12]): inactive; inhibition (Rattus norvegicus [13]): Active; Cmax [14]: 510 nM
CC[C@H](C)[C@H](NC(=O)[C@H](CC1CCCCC1)NC(=O)c1ccno1)C(=O)N(C)Cc1ccccc1	7	7	–
CC[C@H](C)[C@H](NC(=O)[C@H](CC1CCCCC1)NC(=O)c1ccno1)C(=O)NCc1ccccc1-c1ccccc1	1	0	–
